Results reported in patent US20150190369A1, “QUERCETIN-3-GLUCOSIDE AND USES THEREOF” (priority 2012, published 2015).

Experiments:
LDLR mRNA = test: Quantitative RT-PCR for LDLR mRNA in Huh7 cells; format: cell-based, human; conditions: Huh7, 24 h, 10% LPDS, 0 to 10 μM Q3G; maximum at 2 μM, relative to no Q3G
Procedure: At passage, Huh7 cells were routinely seeded at sub-confluence (˜10^6 cells/10-cm dish) in Dulbecco's modified Eagle's medium (DMEM) containing 10% fetal bovine serum (FBS) or LPDS (for experiments) and 50 μg/ml gentamycin. They were incubated overnight at 37° C., in a humidified 5% CO2-95% air atmosphere. Cells were treated or not with Q3G at defined concentrations and for defined lengths of time. Media were collected and centrifuged at 200 g for 5 min to sediment suspended cells; supernatants were collected and supplemented with 0.33 volumes of a 3×-concentrated PIC. Cell monolayers were rinsed with ice-cold phosphate-buffered saline (PBS); they were overlaid with […] the RIPA lysis buffer (50 mM Tris-HCl, pH 8, 150 mM NaCl, 1% NP-40, 0.5% Na-deoxycholate and 0.1% SDS) supplemented with 1× PIC. After 20 min in an ice bath, the lysates were centrifuged at 14,000 g and 4° C. for 20 min, and supernatants were collected. Conditioned media and lysates were stored at −20° C. until analysis. […]
(§1) Standard curves were established using varying amounts of purified and quantified cDNA amplicons of each mRNA. […]
Huh7 cells, hepatocyte derived cellular carcinoma cells, were incubated for 24 h in medium containing 10% lipoprotein-depleted serum (LPDS) and 0 to 10 μM Q3G. The level of LDLR mRNA was measured by quantitative real-time RT-PCR; that of the LDLR protein by semi-quantitative immunoblotting. […]

SREBP-2 mRNA = test: Quantitative RT-PCR for proSREBP-2 mRNA in Huh7 cells; format: cell-based, human; conditions: Huh7, 24 h, 5 μM Q3G
Procedure: FIGS. 9A and 9B are graphs illustrating the proSREBPs-2 mRNA and SREBP-2-related protein levels for cells exposed to Q3G. Cells were incubated for 24 h in medium 5 μM Q3G. FIG. 9A illustrates the results for quantitative RT-PCR for proSREBPs-2 mRNA levels. Values are the means of triplicate experiments±SEM. FIG. 9B illustrates the results for semi-quantitative immunoblotting for cellular SREBP-2-related protein. Mat/Prec values, the averages of two experiments, represent density ratios of the 65-kDa SREBP over the 158-kDa proSREBPs after normalization for β-actin.
At passage, Huh7 cells were routinely seeded at sub-confluence (˜10^6 cells/10-cm dish) in Dulbecco's modified Eagle's medium (DMEM) containing 10% fetal bovine serum (FBS) or LPDS (for experiments) and 50 μg/ml gentamycin. They were incubated overnight at 37° C., in a humidified 5% CO2-95% air atmosphere. Cells were treated or not with Q3G at defined concentrations and for defined lengths of time. Media were collected and centrifuged at 200 g for 5 min to sediment suspended cells; supernatants were collected and supplemented with 0.33 volumes of a 3×-concentrated PIC. […]
as §1

LDLR = test: Immunoblotting for LDLR in MIN6 β-cells; format: cell-based, mouse
Procedure: (§2) The corresponding photographs of the immunoblotting results are also shown. MIN6 cells were incubated for 24 h in the presence of 16 μM Q3G. Cell lysates were analyzed by semi-quantitative immunoblotting using different antibodies successively.
(§3) Mouse insulinoma MIN6 cells were cultured in a 5% CO2-95% air atmosphere at 37° C. in DMEM medium containing 10% heat-inactivated fetal bovine serum, 1 mM Na-pyruvate, 2 mM L-glutamine, 25 mM D-glucose, and 28 μM β-mercaptoethanol. Q3G at a specific final concentration was supplemented to the culture medium and incubation was conducted for a selected length of time. Media were collected, spun at 600 g to sediment suspended cells, supplemented with 0.5 volumes of 3×RIPA-PIC (1×: 50 mM Tris-HCl, pH 8, 150 mM NaCl, 1% NP-40, 0.5% Na-deoxycholate and 0.1% SDS and PIC). Cells were lysed in 1×RIPA-PIC for immuno-blotting, or in RNA extraction buffer for qRT-PCR.
(§4) Cell lysates were fractionated by SDS-PAGE and electrophoretically transferred onto a polyvinylidene fluoride membrane. […] The signal was captured on X-ray film and immunoreactive bands analyzed by densitometry on a Syngene's ChemiGenius^2XE Bio Imaging System (Cambridge, Mass.) within the dynamic range of the instrument. […]

ABCA1 = test: Immunoblotting for ABCA1 in MIN6 β-cells; format: cell-based, mouse; conditions: MIN6, Q3G-treated
Procedure: as §2, §3, §4

## O=c1c(O[C@@H]2O[C@H](CO)[C@@H](O)[C@H](O)[C@H]2O)c(-c2ccc(O)c(O)c2)oc2cc(O)cc(O)c12 [Q3G, quercetin-3-O-β-D-glucoside]
LDLR mRNA
  increase of intracellular content of LDLR mRNA (maximum): 2 ×
SREBP-2 mRNA
  effect on level of SREBP-2 mRNA: no effect
LDLR; MIN6, 24 h, 16 μM Q3G
  amount of cell-surface LDL-receptor versus untreated MIN6 β-cells: approximately 1.4 times
LDLR; MIN6, Q3G-treated
  relative amount of LDLR protein compared with mRNA: in concordance with the relative amounts of mRNA
ABCA1
  relative amount of ABCA1 protein compared with mRNA: in concordance with the relative amounts of mRNA
